Positions count from the first letter of the chain named.

In assay [1] the target is T1, Streptococcus pneumoniae NanB fragment (residues 30-697, SEQ ID NO:4) variant Sia-PS2, D270A (Streptococcus pneumoniae serotype 4, UniProt Q54727, D270A).
T1 construct: exemplified by a NanB fragment (residues 30-697); made in house; host or cells: pET28a+ based plasmid
T1 sequence (Q54727 30-692 D270A): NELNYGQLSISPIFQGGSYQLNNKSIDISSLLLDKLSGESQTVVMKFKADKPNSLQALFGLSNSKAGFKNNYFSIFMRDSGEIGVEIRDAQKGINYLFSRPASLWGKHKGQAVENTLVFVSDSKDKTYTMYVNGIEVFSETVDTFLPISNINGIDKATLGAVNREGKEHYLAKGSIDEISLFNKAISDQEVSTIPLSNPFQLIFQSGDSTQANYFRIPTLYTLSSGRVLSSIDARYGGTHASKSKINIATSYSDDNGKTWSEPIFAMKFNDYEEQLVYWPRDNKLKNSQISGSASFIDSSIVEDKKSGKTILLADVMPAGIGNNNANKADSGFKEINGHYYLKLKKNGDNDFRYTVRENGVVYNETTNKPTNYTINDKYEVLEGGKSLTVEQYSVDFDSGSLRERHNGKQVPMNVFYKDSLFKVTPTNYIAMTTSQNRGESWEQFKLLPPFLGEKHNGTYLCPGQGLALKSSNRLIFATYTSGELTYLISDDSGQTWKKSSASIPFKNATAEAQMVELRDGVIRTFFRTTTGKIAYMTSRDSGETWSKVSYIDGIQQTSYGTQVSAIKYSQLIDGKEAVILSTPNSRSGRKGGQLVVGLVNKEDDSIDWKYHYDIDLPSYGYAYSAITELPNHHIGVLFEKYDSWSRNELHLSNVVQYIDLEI
Kind of assay: Bio-layer Interferometry (BLI) steady-state binding to immobilized oligosaccharides. The following applies: in words. The source says: (§1) Lsp=lactose (no sialic acid), 3′SL=α2,3-sialyllactose, 6′SL=α2,6-sialyllactose, GD3=GD3 oligosaccharide that contains a terminal α2,8-linked Neu5Ac residue and an internal α2,3-linked Neu5Ac residue.
(§2) The pan-specific sialic acid-recognizing affinity reagent of the invention is exemplified by a NanB fragment (residues 30-697; SEQ ID NO:4) with a single mutation. Exemplary mutation sites include Y653, D270, and E541. Exemplary pan-specific affinity reagents, each having a single mutation in the NanB GH domain as noted, are shown in Table 2 and include Sia-PS1 (Y653F), Sia-PS2 (D270A), Sia-PS3 (D270N), Sia-PS4 (E541A), and Sia-PS5 (E541Q). […] They reduce (Sia-PS2 and Sia-PS3) or effectively eliminate (Sia-PS1, Sia-PS4, and Sia-PS5) catalytic activity, and they broaden specificity for sialic acid ligand binding. The pan-specific sialic acid-recognizing affinity reagent we chose for further validation study was Sia-PS1 that contains the Y653F at active site residue Tyr653. This one mutation, which involves removal of a single hydroxyl group, not only eliminates enzyme activity, but astonishingly introduces pan-specific binding into the mutated, inactivated enzyme, despite its distance from the carbohydrate binding module (CBM) domain of the NanB.
(§3) The flowchart presented in FIG. 2 outlines schematically the methods employed in Example I and II to screen, optimize and select the Lectenz® candidates. The specificity and affinity of potential Lectenz® candidates is evaluated through structurally-guided site-specific and/or site-saturation mutagenesis assays designed to enable the selection of optimal clones. Bio-layer Interferometry (BLI) is used to determine the binding kinetics and affinities for binding to glycans and glycoproteins. Affinity chromatography is performed by immobilizing the Lectenz® candidates in a column format to evaluate their ability to fractionate sialylated- and asialo-glycans and glycoconjugates. All promising Lectenz® candidates are screened against the glycan array at the CFG, which currently contains over 600 O- and N-linked glycans.
(§4) Steady-state binding constants between Lectenz® candidates and sialic acid ligands were measured by BLI.
(In general: In BLI a coated tip is dipped into the sample, and binding shifts an interference pattern.)

Assay [2] addresses T2, Streptococcus pneumoniae NanB fragment (residues 30-697, SEQ ID NO:4) variant Sia-PS5, E541Q (Streptococcus pneumoniae serotype 4, UniProt Q54727, E541Q).
T2 construct: exemplified by a NanB fragment (residues 30-697); poly-histidine; made in house; host or cells: pET28a+ based plasmid
T2 sequence (Q54727 30-692 E541Q): T1 sequence (Q54727 30-692 D270A) with A241D, E512Q
The description is as above. The following applies: in words.
Description: as §1, §2, §3, §4

As to `CC(=O)N[C@H]1[C@H]([C@H](O)[C@H](O)CO)O[C@@](O[C@H](CO)[C@@H](O)[C@@H]2O[C@@](O[C@H]3[C@@H](O)[C@@H](CO)O[C@@H](O[C@H]4[C@H](O)[C@@H](O)C(O)O[C@@H]4CO)[C@@H]3O)(C(=O)O)C[C@H](O)[C@H]2NC(C)=O)(C(=O)O)C[C@@H]1O` (stereo partly shown) [GD3, Neu5Acα2,8Neu5Acα2,3Galβ1, 4Glcβ], the binding affinity entry in assay [1] and in assay [2] was “micromolar or sub-micromolar” throughout.
With `CC(=O)N[C@H]1[C@H]([C@H](O)[C@H](O)CO)O[C@@](O[C@H]2[C@@H](O)[C@@H](CO)O[C@@H](O[C@H]3[C@H](O)[C@@H](O)C(O)O[C@@H]3CO)[C@@H]2O)(C(=O)O)C[C@@H]1O` (stereo partly drawn) [3′SL, α2,3-sialyllactose], in assay [1], the KD value result is “higher KD value” and the binding affinity entry is given as “micromolar or sub-micromolar”. The binding affinity entry in assay [2] was “micromolar or sub-micromolar”.
In the case of `CC(=O)N[C@H]1[C@H]([C@H](O)[C@H](O)CO)O[C@@](OC[C@H]2O[C@@H](O[C@H]3[C@H](O)[C@@H](O)C(O)O[C@@H]3CO)[C@H](O)[C@@H](O)[C@H]2O)(C(=O)O)C[C@@H]1O` (stereo partly shown) [6′SL, 6′-sialyllactose (Neu5Acα2,6Galβ1, 4Glcβ, or 6′SL)], the binding affinity entry in assay [1] and in assay [2] was “micromolar or sub-micromolar” throughout.

The record behind these values is US11434479B2, “Sialic acid binding polypeptide” (priority 2017, dated 2022).
